Assay results reported in patent US12478629B2, “Use of glucocorticoids for the treatment of epithelial microbial infections of a fluid containing organ with a natural exterior orifice in mammals” (VIRBAC, priority 2018, dated 2025).

Test system: mild clinical mastitis
Test: Multicenter clinical field study, intramammary treatment of mild clinical mastitis
Type: in vivo, lactating cows and heifers
Experimental: The purpose of this multicenter clinical field study is to evaluate the efficacy and the safety of HCA at a dosage of 20 mg in 10 ml of Vaseline oil based formulation every 12±2 h hours (minimum of one and maximum of four treatments) in the intramammary treatment of mild clinical mastitis in lactating cows; more specifically to assess the efficacy (clinical cure rate) of HCA alone in the treatment of udder inflammation (mild clinical mastitis), under field conditions and to assess the safety and the risk of aggravation or relapses during and after the treatment with HCA alone.
Animals (50 lactating cows and heifers presenting clinical symptoms of mastitis) have been intramammarily treated with one syringe (10 mL) containing 20 mg of HCA at each time point for a minimum of 1 and a maximum of 4 treatments in a 12±2 h interval (each morning or evening milking time, respectively). Depending on the result of the clinical examination and the clinical status classification, the animal has been treated until the animal was classified as clinically cured, failure or the maximum of 4 treatments is reached.
Before the tested treatment, a sample of milk of each animal has been collected to be tested for bacteriology of classical pathogenic bacteria; among the 50 animals, 34 produced a milk containing pathogenic bacteria, no pathogenic bacteria has been detected in the milk of the 16 remaining animals, it can nevertheless not be excluded that those 16 animals were infected by a non-tested pathogenic bacteria.

In the case of `CCC(=O)O[C@]1(C(=O)COC(C)=O)CC[C@H]2[C@@H]3CCC4=CC(=O)CC[C@]4(C)[C@H]3[C@@H](O)C[C@@]21C` [HCA, hydrocortisone 21-acetate 17α-propionate], the “animals cured (clinical cure rate)” value (16 animals bacteriologically negative at DO) is reported as 56.3%, the “animals cured (clinical cure rate)” value (34 animals bacteriologically positive at DO) is reported as 20.6% and the “animals cured (clinical cure rate)” value (all 50 animals, 20 mg HCA in 10 mL intramammary every 12±2 h, after 3 or 4 administrations) is reported as 32%. For the same molecule, the “adverse effect of the treatment / tolerance” value (intramammary, 20 mg in 10 mL, 1 to 4 treatments) was “No adverse effect”.
